SMILES strings stand for the structures.

Test [1] can be described thus: Inhibitory activity towards Alpha-mannosidase from Jack bean.
Test in test [2]: as above
The source holds these as a separate data set.

Test [3] in a line: Inhibitory activity towards Beta-Glucosidase from Almond.
The nature of test [4]: Inhibitory activity towards Alpha-mannosidase from jack bean.
Test [5] is described as follows: Inhibitory activity towards Beta-Glucosidase from Almond. The source holds these as a separate data set.
The nature of test [6]: Inhibitory activity towards Alpha-mannosidase from Almond.
Test in test [7]: as above
The source holds these as a separate data set.

Test [8] in a line: Inhibitory activity towards Beta-Glucosidase from Almond. This is another data set of the same source.
Test in test [9]: as above
This is another data set of the same source.

The nature of test [10]: Inhibitory activity towards Alpha-mannosidase from Almond. The source holds these as a separate data set.

In the case of `C[C@@H](NCC1NCC(O)C1O)c1ccccc1` (stereo partly drawn) [2-[((R)-1-Phenyl-ethylamino)-methyl]-pyrrolidine-3,4-diol], affinity in test [1] was put at a Ki of 170 µM. Further, 440 µM corresponded to half-maximal inhibition in test [2] (IC50).
Take `OC1CNC(CNCc2ccccc2)C1O` (stereo not drawn) [2-(Benzylamino-methyl)-pyrrolidine-3,4-diol]: 370 µM corresponded to half-maximal inhibition in [3] (IC50).
On to `OC1CNC(CNC2CCCC2)C1O` (stereo not drawn) [2-Cyclopentylaminomethyl-pyrrolidine-3,4-diol], for which the IC50 – broadly, the point on the concentration scale where inhibition reaches its midpoint – is 500 µM in test [3] and 560 µM in test [4].
For the molecule `OC1CNC(CNCc2ccco2)C1O` (stereo not drawn) [2-{[(Furan-2-ylmethyl)-amino]-methyl}-pyrrolidine-3,4-diol], the half-inhibitory concentration (IC50) in test [3] was found to be 140 µM. Besides, in test [5], the Ki (as a rule, a measure of affinity in units of concentration, obtained from inhibition or displacement) came to 12 µM.
`OC1CNC(CNCc2cccs2)C1O` (stereo not drawn) [2-{[(Thiophen-2-ylmethyl)-amino]-methyl}-pyrrolidine-3,4-diol] returned an IC50 in [6] of 350 µM. Also, the Ki in test [1] was determined as 26 µM; in [7], 98 µM.
Turning to `CC(=O)N(Cc1ccccc1)CC1NCC(O)C1O` (stereo not drawn) [N-Benzyl-N-(3,4-dihydroxy-pyrrolidin-2-ylmethyl)-acetamide], in test [3], half-maximal inhibition (IC50) was put at 430 µM. Also, the Ki in test [8] is 220 µM.
In the case of `OC1CNC(CNCC2CCN(Cc3ccccc3)CC2)C1O` (stereo not drawn) [2-{[(1-Benzyl-piperidin-4-ylmethyl)-amino]-methyl}-pyrrolidine-3,4-diol], the values for the IC50 in test [3] and in [2] were 430 µM and 700 µM, respectively.
Regarding `OCC(O)[C@H]1NC[C@H](O)[C@@H]1O` (stereo partly drawn), the values for the IC50 in [9] and in test [4] were 120 µM and 800 µM, respectively. Besides, the affinity in test [8], expressed as Ki, was 53 µM.
Turning to `NCC1NCC(O)C1O` (stereo not drawn) [2-Aminomethyl-pyrrolidine-3,4-diol], the affinity in [1], expressed as Ki, was 53 µM. Also, the IC50 in test [10] is 1000 µM; in test [2], 170 µM.
Turning to `OC1CNC(CNCn2ccnc2)C1O` (stereo not drawn) [2-{[(Imidazol-1-ylmethyl)-amino]-methyl}-pyrrolidine-3,4-diol], the IC50 in test [3] was found to be 420 µM; in test [10], 570 µM; in test [2], 700 µM.
In test [1], `OC(O)CC1NCC(O)C1O` (stereo not drawn) [2-(2,2-Dihydroxy-ethyl)-pyrrolidine-3,4-diol] registered a Ki of 80 µM. Besides, the concentration for half-maximal inhibition (IC50) in test [2] stood at 180 µM.
With `CC(NCC1NCC(O)C1O)C(O)(c1ccccc1)c1ccccc1` (stereo not drawn) [2-[(2-Hydroxy-1-methyl-2,2-diphenyl-ethylamino)-methyl]-pyrrolidine-3,4-diol], the IC50 amounted to 550 µM in test [3] and 440 µM in test [4]. Also, in test [1], the affinity, expressed as Ki, was 170 µM.

The values above are taken from BindingDB's records for doi:10.1016/s0960-894x(01)00477-2 (Section De Chimie De L'Universit&#163, 2001).
